SMILES strings stand for the structures.

In the experiment the target is DGKα (Homo sapiens (Human), UniProt P23743). Nature of the experiment: Human DGKα kinase activity inhibition assay (ADP-Glo). Format: biochemical. Particulars: recombinant full-length human DGKα, 55 μM ATP, 7 μM 1,2-dioleoyl-sn-glycerol, read-out: IC50 values of examples in in vitro human DGKa kinase activity inhibition assays. The procedure, abridged: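 Activity was measured as ADP production, detected by luciferase luminescence after removal of unused ATP. The enzyme was baculovirus-expressed full-length human DGKα with a C-terminal FLAG tag. The substrate was 1,2-dioleoyl-sn-glycerol in detergent micelles, and compounds came from 100× DMSO solutions.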
Chain of DGKα (P23743 other isoform, or with tags, fused parts or gaps): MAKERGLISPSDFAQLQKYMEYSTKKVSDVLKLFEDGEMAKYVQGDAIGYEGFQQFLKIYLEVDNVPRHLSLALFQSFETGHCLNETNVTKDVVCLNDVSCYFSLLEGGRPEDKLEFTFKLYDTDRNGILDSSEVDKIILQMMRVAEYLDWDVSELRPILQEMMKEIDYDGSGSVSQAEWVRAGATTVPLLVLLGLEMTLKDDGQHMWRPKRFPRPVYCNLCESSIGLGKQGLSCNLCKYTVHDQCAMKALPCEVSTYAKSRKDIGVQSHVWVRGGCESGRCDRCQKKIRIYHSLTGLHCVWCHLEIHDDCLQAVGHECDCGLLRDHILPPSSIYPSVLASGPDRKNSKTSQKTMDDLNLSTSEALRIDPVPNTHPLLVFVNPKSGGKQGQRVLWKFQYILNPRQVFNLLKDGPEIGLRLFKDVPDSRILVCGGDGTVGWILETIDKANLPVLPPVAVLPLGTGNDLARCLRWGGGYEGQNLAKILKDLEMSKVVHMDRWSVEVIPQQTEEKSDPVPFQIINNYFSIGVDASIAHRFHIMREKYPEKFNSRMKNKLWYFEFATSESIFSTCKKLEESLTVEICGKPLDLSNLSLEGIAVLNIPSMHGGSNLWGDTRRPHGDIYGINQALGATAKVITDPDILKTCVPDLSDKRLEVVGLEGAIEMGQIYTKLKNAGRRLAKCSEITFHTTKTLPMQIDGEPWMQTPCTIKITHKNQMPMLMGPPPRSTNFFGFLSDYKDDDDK
In general terms: In ADP-Glo the light output rises with the ADP produced.
As for `Cn1c(=O)c(C(N)=O)c(N2CCC(c3nc4ccccc4o3)CC2)c2cc(F)ccc21` [Example 299, 4-[4-(1,3-benzoxazol-2-yl)piperidin-1-yl]-6-fluoro-1-methyl-2-oxo-1,2-dihydroquinoline-3-carboxamide], the IC50 – broadly, the concentration needed to halve the response being measured – amounted to 1 nM.
For the molecule `COCCOc1ccc2c(N3CCC(c4nc5cc(C)ccc5o4)CC3)c(C(N)=O)c(=O)n(C)c2c1` [Example 480, 7-(2-methoxyethoxy)-1-methyl-4-[4-(5-methyl-1 3-benzoxazol-2-yl)piperidin-1-yl]-2-oxo-1,2-dihydroquinoline-3-carboxamide], the half-inhibitory concentration (IC50) was determined as 9.8 nM.
`Cn1ccc2c(F)cc(C3CCN(c4c(C(N)=O)c(=O)n(C)c5ccccc45)CC3)cc21` [Example 471, 4-[4-(4-fluoro-1-methyl-1H-indol-6-yl)piperidin-1-yl]-1-methyl-2-oxo-1,2-dihydroquinoline-3-carboxamide]: the IC50 stood at 3.9 nM.
Consider `Cc1ccc2oc(C3CCN(c4c(C#N)c(=O)n(C)c5cc(O)c(Cl)cc45)CC3)nc2c1` [Example 567, 6-chloro-7-hydroxy-1-methyl-4-[4-(5-methyl-1,3-benzoxazol-2-yl)piperidin-1-yl]-2-oxo-1,2-dihydroquinoline-3-carbonitrile], for which the IC50 was 2 nM.
The same measure for `Cc1ccc2c(N3CCC(c4nc5ccccc5s4)CC3)c(C#N)c(=O)n(C)c2c1` [Example 222, 4-[4-(1,3-benzothiazol-2-yl)piperidin-1-yl]-1,7-dimethyl-2-oxo-1,2-dihydroquinoline-3-carbonitrile]: 5.2 nM; for `Cn1c(=O)c(C#N)c(N2CCC(c3cccc4ccoc34)CC2)c2ccccc21` [Example 73]: 33 nM.
As for `Cn1c(=O)c(C#N)c(N2CCC(C)(c3nc4ccccc4o3)CC2)c2ccccc21` [Example 1, 4-[4-(1,3-benzoxazol-2-yl)-4-methylpiperidin-1-yl]-1-methyl-2-oxo-1,2-dihydroquinoline-3-carbonitrile], the IC50 is 1.4 nM.
The same measure for `Cc1ccc2nc(C3CCN(c4c(C#N)c(=O)n(C)c5ccc(C)cc45)CC3)oc2c1` [Example 184, 1,6-dimethyl-4-[4-(6-methyl-1,3-benzoxazol-2-yl)piperidin-1-yl]-2-oxo-1,2-dihydroquinoline-3-carbonitrile]: 1.5 nM; for `Cn1c(=O)c(C#N)c(N2CCC(F)(c3nc4ccccc4o3)CC2)c2ccccc21` [Example 389, 4-[4-(1,3-benzoxazol-2-yl)-4-fluoropiperidin-1-yl]-1-methyl-2-oxo-1,2-dihydroquinoline-3-carbonitrile]: 3.1 nM; for `Cn1c(=O)c(C#N)c(N2CCC(c3nc4ccccc4o3)CC2)c2cc(Br)ccc21` [Example 168, 4-[4-(1,3-benzoxazol-2-yl)piperidin-1-yl]-6-bromo-1-methyl-2-oxo-1,2-dihydroquinoline-3-carbonitrile]: 0.5 nM.
`Cn1c(=O)c(C#N)c(N2CCC(c3ccc(N4CCCC4=O)cc3)CC2)c2ccccc21` [Example 59]: the IC50 was 23 nM.
Under `Cn1c(=O)c(C#N)c(N2CCC(c3ccc(-c4ccccc4)cc3)CC2)c2ccccc21` [Example 53, 4-[4-([1,1′-biphenyl]-4-yl)piperidin-1-yl]-1-methyl-2-oxo-1,2-dihydroquinoline-3-carbonitrile] stands 13 nM; under `Cc1ccc2oc(C3CCN(c4c(C#N)c(=O)n(C)c5ccc(C#N)cc45)CC3)nc2c1` [Example 403, 1-methyl-4-[4-(5-methyl-1,3-benzoxazol-2-yl)piperidin-1-yl]-2-oxo-1,2-dihydroquinoline-3,6-dicarbonitrile], 2 nM.
On to `Cc1ccc2oc(C3CCN(c4c(C#N)c(=O)n(C)c5cc(N(C)CCO)c(C)cc45)CC3)nc2c1` [Example 551, 7-[(2-hydroxyethyl)(methyl)amino]-1,6-dimethyl-4-[4-(5-methyl-1,3-benzoxazol-2-yl)piperidin-1-yl]-2-oxo-1,2-dihydroquinoline-3-carbonitrile], for which the IC50 was 0.1 nM.
For the molecule `COc1cccc(-c2csc(C3CCN(c4c(C#N)c(=O)n(C)c5ccccc45)CC3)n2)c1` [Example 372, 4-{4-[4-(3-methoxyphenyl)-1,3-thiazol-2-yl]piperidin-1-yl}-1-methyl-2-oxo-1,2-dihydroquinoline-3-carbonitrile], the IC50 is 14 nM.
As for `Cc1ccc2oc(C3CCN(c4c(C#N)c(=O)n(C)c5cc(N(C)C6COC6)ccc45)CC3)nc2c1` [Example 398, 1-methyl-4-[4-(5-methyl-1,3-benzoxazol-2-yl)piperidin-1-yl]-7-[methyl(oxetan-3-yl)amino]-2-oxo-1,2-dihydroquinoline-3-carbonitrile], the IC50 was 1.7 nM.
Under `CCn1c(=O)c(C#N)c(N2CCC(c3nc4ccccc4o3)CC2)c2ccccc21` [Example 332, 4-[4-(1,3-benzoxazol-2-yl)piperidin-1-yl]-1-ethyl-2-oxo-1,2-dihydroquinoline-3-carbonitrile] stands 17 nM; under `C=C(c1ccc2c(c1)c(N1CCC(c3nc4cc(C)ccc4o3)CC1)c(C#N)c(=O)n2C)C(F)(F)F` [Example 411, 1-methyl-4-[4-(5-methyl-1,3-benzoxazol-2-yl)piperidin-1-yl]-2-oxo-6-(3,3,3-trifluoroprop-1-en-2-yl)-1,2-dihydroquinoline-3-carbonitrile], 5.1 nM; under `Cn1c(=O)c(C#N)c(N2CCC(c3nc4ccc(Br)cc4s3)CC2)c2ccccc21` [Example 14, 4-[4-(6-bromo-1,3-benzothiazol-2-yl)piperidin-1-yl]-1-methyl-2-oxo-1,2-dihydroquinoline-3-carbonitrile], 4.4 nM.
Consider `Cc1ccc2oc(C3CCN(c4c(C#N)c(=O)n(C)c5cc(OC6CCOC6)c(Br)cc45)CC3)nc2c1` (racemic) [Example 424, (rac)-6-bromo-1-methyl-4-[4-(5-methyl-1,3-benzoxazol-2-yl)piperidin-1-yl]-2-oxo-7-[(oxolan-3-yl)oxy]-1,2-dihydroquinoline-3-carbonitrile], for which the IC50 was 0.3 nM.
Regarding `Cn1c(=O)c(C#N)c(N2CCC(c3ccn(-c4cccc(Cl)c4)n3)CC2)c2ccccc21` [Example 368, 4-{4-[1-(3-chlorophenyl)-1H-pyrazol-3-yl]piperidin-1-yl}-1-methyl-2-oxo-1,2-dihydroquinoline-3-carbonitrile], the IC50 was 13 nM.
As for `Cc1cc2c(N3CCC(c4nc(-c5ccccc5C)no4)CC3)c(C#N)c(=O)n(C)c2cc1NCCO` [Example 559, 7-[(2-hydroxyethyl)amino]-1,6-dimethyl-4-{4-[3-(2-methylphenyl)-1,2,4-oxadiazol-5-yl]piperidin-1-yl}-2-oxo-1,2-dihydroquinoline-3-carbonitrile], the IC50 amounted to 1.7 nM.
Under `Cc1ccc2oc(C3CCN(c4c(C(N)=O)c(=O)n(C)c5cc(C(F)(F)F)ccc45)CC3)nc2c1` [Example 307, 1-methyl-4-[4-(5-methyl-1,3-benzoxazol-2-yl)piperidin-1-yl]-2-oxo-7-(trifluoromethyl)-1,2-dihydroquinoline-3-carboxamide] stands 5.7 nM; under `Cc1ccc2oc(C3CCN(c4c(C#N)c(=O)n(C)c5ccc(F)cc45)CC3)nc2c1` [Example 217, 6-fluoro-1-methyl-4-[4-(5-methyl-1,3-benzoxazol-2-yl)piperidin-1-yl]-2-oxo-1,2-dihydroquinoline-3-carbonitrile], 1 nM.
